Assay results published in patent publication US7879876B2, “Sulfonamide derivatives and use thereof for the modulation of metalloproteinases” (Merck Serono SA, priority 2005, dated 2011).

What was measured:
Format in all cases: biochemical
[1] = target: T1, collagenase (MMP-1) (Homo sapiens, UniProt P03956); assay: MMP-1 enzyme inhibition assay (coumarin-labelled peptide substrate); conditions: read-out: percentage inhibition MMP1
T1 sequence (P03956 100-469): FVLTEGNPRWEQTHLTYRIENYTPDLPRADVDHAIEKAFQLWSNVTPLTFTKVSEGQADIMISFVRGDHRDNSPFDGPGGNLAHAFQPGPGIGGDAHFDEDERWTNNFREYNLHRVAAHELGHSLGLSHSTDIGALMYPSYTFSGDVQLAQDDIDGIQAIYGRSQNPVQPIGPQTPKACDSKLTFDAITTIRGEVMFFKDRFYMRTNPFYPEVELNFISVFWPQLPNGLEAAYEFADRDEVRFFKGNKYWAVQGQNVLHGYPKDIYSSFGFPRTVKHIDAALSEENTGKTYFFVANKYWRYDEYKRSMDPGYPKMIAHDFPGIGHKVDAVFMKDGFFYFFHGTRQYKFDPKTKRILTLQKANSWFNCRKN
Procedure, shortened: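 Recombinant human MMP-1, APMA-activated if needed, in Tris-HCl pH 7.6 with NaCl, CaCl2 and 0.05% Brij 35; McaPLGLDpaAR substrate added as 8 μM solution, 2 h at 37 °C. Fluorescence (320/405 nm) read without stopping; IC50 from 10 duplicate concentrations (100 μM–5.1 nM) by four-parameter fit.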

[2] = target: 92 kDa gelatinase (MMP-9) (Homo sapiens, UniProt P14780); assay: MMP-9 enzyme inhibition assay (coumarin-labeled peptide substrate); conditions: for IC50: read-out: IC50 MMP9
Chain of 92 kDa gelatinase (MMP-9) (P14780 107-707 limits assumed): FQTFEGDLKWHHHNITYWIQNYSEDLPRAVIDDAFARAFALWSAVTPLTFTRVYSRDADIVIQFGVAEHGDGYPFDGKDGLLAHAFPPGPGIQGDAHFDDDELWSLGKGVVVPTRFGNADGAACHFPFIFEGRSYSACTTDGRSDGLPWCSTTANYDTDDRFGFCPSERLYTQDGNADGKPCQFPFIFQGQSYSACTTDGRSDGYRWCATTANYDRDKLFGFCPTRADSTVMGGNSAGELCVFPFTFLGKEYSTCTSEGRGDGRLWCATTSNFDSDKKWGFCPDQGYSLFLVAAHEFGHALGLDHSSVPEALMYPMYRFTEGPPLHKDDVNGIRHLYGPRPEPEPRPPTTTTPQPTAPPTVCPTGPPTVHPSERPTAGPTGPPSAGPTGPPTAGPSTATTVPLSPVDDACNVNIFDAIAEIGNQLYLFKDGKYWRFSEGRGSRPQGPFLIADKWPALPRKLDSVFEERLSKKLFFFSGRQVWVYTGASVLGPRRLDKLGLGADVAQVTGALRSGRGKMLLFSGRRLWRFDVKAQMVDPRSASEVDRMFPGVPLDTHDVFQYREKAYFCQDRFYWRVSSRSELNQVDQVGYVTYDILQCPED
Procedure, shortened: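 Recombinant human MMP-9 (APMA-activated if needed) was assayed in 100 mM Tris-HCl pH 7.6, 100 mM NaCl, 10 mM CaCl2, 0.05% Brij 35, with McaPLGLDpaAR substrate at 37° C. for 2 h. Fluorescence was read at ex 320/em 405 nm over ten 3-fold compound doses (100 μM–5.1 nM) in duplicate. IC50 came from a four-parameter fit.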

[3] = target: human ADAM17 (TACE) (Homo sapiens, UniProt P78536); assay: TACE enzyme inhibition assay
Chain of human ADAM17 (TACE) (P78536 215-824): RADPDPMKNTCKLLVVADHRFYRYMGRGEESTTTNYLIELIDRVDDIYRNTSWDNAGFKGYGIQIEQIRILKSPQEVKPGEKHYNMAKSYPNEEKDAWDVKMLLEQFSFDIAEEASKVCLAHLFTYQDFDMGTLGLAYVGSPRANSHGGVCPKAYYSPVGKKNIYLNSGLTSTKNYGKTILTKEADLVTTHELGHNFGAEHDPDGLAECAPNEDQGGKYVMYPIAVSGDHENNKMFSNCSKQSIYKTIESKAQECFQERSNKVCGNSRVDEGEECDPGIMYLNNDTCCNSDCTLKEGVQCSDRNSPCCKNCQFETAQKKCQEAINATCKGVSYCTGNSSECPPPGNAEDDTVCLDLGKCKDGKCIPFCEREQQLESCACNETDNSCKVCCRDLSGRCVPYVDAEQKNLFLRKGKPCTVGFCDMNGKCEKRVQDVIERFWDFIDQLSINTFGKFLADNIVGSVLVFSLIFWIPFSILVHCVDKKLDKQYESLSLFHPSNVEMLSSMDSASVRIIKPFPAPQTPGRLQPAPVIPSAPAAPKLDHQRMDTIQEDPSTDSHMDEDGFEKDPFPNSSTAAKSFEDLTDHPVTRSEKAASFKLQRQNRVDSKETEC
Procedure: Compounds of the invention were tested to assess their activities as inhibitors of MMP-1, MMP-2, MMP-9, MMP-14, MMP-12 and TACE. MMP-9 Assay Protocol
Compounds of the invention can be tested for inhibitory activity against human ADAM17 in an assay using human Mca-(endo-1a-Dap(Dnp)-TNF-alpha(−5 to +6)amide as substrate (FEBS Letters, 2000, 275-279).
Stock solutions are prepared as followed: • Assay Buffer: 20 mM Hepes pH 7.5 (Fluka) containing 0.05% Brij 35 (Fluka) • Substrate: 6.1 mM human Mca-(endo-1a-Dap(Dnp)-TNF-alpha(−5 to +6)amide (Bachem) stock solution in 100% DMSO (stored at −20° C.); diluted to 5 μM in assay buffer. • Enzyme: Recombinant human ADAM17, appropriately diluted in assay buffer (1.5 μg/ml).
Test Compounds are prepared initially as 10 mM compound solution in 100% DMSO, diluted to 1 mM in 100% DMSO, then serially diluted 3-fold in 100% DMSO across a 96-well microtitre plate. Assay concentration range is typically between 100 μM to 0.01 nM. The assay is performed in a total volume of 100 μL per well in 96-well microtitre plates. Appropriate concentrations of test compounds dissolved in 10 μL of DMSO are added to the wells, followed by substrate solution (50 μL, 5 μM prepared by dilution of DMSO stock in assay buffer) and enzyme solution (40 μL). For each as say ten concentrations of test compound are examined in […]. Control wells lack either enzyme or test compound. The reactions are incubated at room temperature for 1.5 hours. The fluorescence at 405 nm is measured immediately with a fluorometer using 355 nm excitation, without stopping the reaction.
The effect of the test compound is determined from the dose response curve generated by the 10 duplicate concentrations of inhibitor. The IC50 (the concentration of compound required to give a 50% decrease in enzyme activity) is obtained by fitting data to the equation, Y=a+((b−a)/(1+(c/X)^d)). (Y=inhibition achieved for a particular dose; X=the dose in nM; a=minimum y or zero % inhibition; b=maximum y or 100% inhibition; c=is the IC50; d=is the slope). The result is rounded to one significant figure.

[4] = read-out: percentage inhibition MMP9

inhibition at 5 µM [1] [%]	IC50 [2] [µM]	IC50 [3] [nM]	inhibition at 0.1 µM [1] [%]	inhibition at 5 µM [2, 4] [%]	inhibition at 0.1 µM ([2]; @ 0.1 μM, read-out: percentage inhibition MMP9) [%]	Structure (SMILES)
0	> 5	> 5000				COc1cc2c(cc1OC)CN(S(=O)(=O)CC([C@H](O)CO)N(O)C=O)CC2 (stereo partly drawn) [Example 24, N-((2S)-1-{[(6,7-dimethoxy-3,4-dihydroisoquinolin-2(1H)-yl)sulfonyl]methyl}-2,3-dihydroxypropyl)-N-hydroxyformamide]
37	> 5	1200				O=CN(O)C(CS(=O)(=O)N1CCc2cc(C(F)(F)F)ccc2C1)C1CCCC1 (stereo not drawn) [Example 25, N-(1-cyclopentyl-2-{[6-(trifluoromethyl)-3,4-dihydro-isoquinolin-2(1H)-yl]sulfonyl}ethyl)-N-hydroxyformamide]
92		1100	17	62		CC(C)(C)CC(CS(=O)(=O)N1Cc2ccc(F)cc2C1)N(O)C=O (stereo not drawn) [Example 26, N-(1-{[(5-fluoro-1,3-dihydro-2H-isoindol-2-yl)sulfonyl]methyl}-3,3-dimethylbutyl)-N-hydroxyformamide]
30		506		13		O=CN(O)[C@H](CS(=O)(=O)N1CCc2ccc(C(F)(F)F)cc2C1)[C@H]1CCCO1 [Example 27, N-hydroxy-N-((1S)-1-[(2R)-tetrahydrofuran-2-yl]-2-{[7-(trifluoromethyl)-3,4-dihydroisoquinolin-2(1H)-yl]sulfonyl}ethyl)formamide]
18		1280		21		CC1(C)OC[C@H](C(CS(=O)(=O)N2CCc3ccc(C(F)(F)F)cc3C2)N(O)C=O)O1 (stereo partly drawn) [Example 28, N-(1-[(4S)-2,2-dimethyl-1,3-dioxolan-4-yl]-2-{[7-(trifluoro-methyl)-3,4-dihydroisoquinolin-2(1H)-yl]sulfonyl}ethyl)-N-hydroxyformamide]
94		277	22	40		O=CN(O)[C@H](CS(=O)(=O)N1Cc2ccc(F)cc2C1)[C@H]1CCCO1 [Example 29, N-{(1S)-2-[(5-fluoro-1,3-dihydro-2H-isoindol-2-yl)-sulfonyl]-1-[(2R)-tetrahydrofuran-2-yl]ethyl}-N-hydroxyformamide]
8		> 5000		3		CCC#CCC(C)(C)C(CS(=O)(=O)N1CCc2cc(C(F)(F)F)ccc2C1)N(O)C=O (stereo not drawn) [Example 30, N-[2,2-dimethyl-1-({[6-(trifluoromethyl)-3,4-dihydro-isoquinolin-2(1H)-yl]sulfonyl}methyl)hept-4-yn-1-yl]-N-hydroxyformamide]
10		> 5000		3		CC(C)(Cc1ccccc1)C(CS(=O)(=O)N1CCc2cc(C(F)(F)F)ccc2C1)N(O)C=O (stereo not drawn) [Example 31, N-[2,2-dimethyl-3-phenyl-1-({[6-(trifluoromethyl)-3,4-dihydroisoquinolin-2(1H)-yl]sulfonyl}methyl)propyl]-N-hydroxyformamide]
4		> 5000		4		O=CN(O)[C@@H](CS(=O)(=O)N1CCc2ccc(C(F)(F)F)cc2C1)[C@H]1CCCO1 [Example 32, N-hydroxy-N-((1R)-1-[(2R)-tetrahydrofuran-2-yl]-2-{[7-(trifluoromethyl)-3,4-dihydroisoquinolin-2(1H)-yl]sulfonyl}ethyl)formamide]
4		427		15		COc1ccc2c(c1)CN(S(=O)(=O)CC(CCC1CCCO1)N(O)C=O)CC2 (stereo not drawn) [Example 33, N-hydroxy-N-[1-{[(7-methoxy-3,4-dihydroisoquinolin-2(1H)-yl)sulfonyl]methyl}-3-(tetrahydrofuran-2-yl)propyl]formamide]
12		353		42		CCC(CC)C(CS(=O)(=O)N1CCc2cc(Cl)c(Cl)cc2C1)N(O)C=O (stereo not drawn) [Example 34, N-(1-{[(6,7-dichloro-3,4-dihydroisoquinolin-2(1H)-yl)-sulfonyl]methyl}-2-ethylbutyl)-N-hydroxyformamide]
6		> 5000		43		CCC(CC)C(CS(=O)(=O)N1CCc2cc(C(C)C)ccc2C1)N(O)C=O (stereo not drawn) [Example 35, N-(2-ethyl-1-{[(6-isopropyl-3,4-dihydroisoquinolin-2(1H)-yl)sulfonyl]methyl}butyl)-N-hydroxyformamide]
41		228		37		CCC(CC)C(CS(=O)(=O)N1CCc2ccc(Br)cc2C1)N(O)C=O (stereo not drawn) [Example 36, N-(1-{[(7-bromo-3,4-dihydroisoquinolin-2(1H)-yl)sulfonyl]-methyl}-2-ethylbutyl)-N-hydroxyformamide]
36		1090		58		CCC(CC)C(CS(=O)(=O)N1CCc2cc(C(F)(F)F)ccc2C1)N(O)C=O (stereo not drawn) [Example 37, N-[2-ethyl-1-({[6-(trifluoromethyl)-3,4-dihydroisoquinolin-2(1H)-yl]sulfonyl}methyl)butyl]-N-hydroxyformamide]
17		276		50		CCC(CC)C(CS(=O)(=O)N1CCc2ccc(OC)cc2C1)N(O)C=O (stereo not drawn) [Example 38, N-(2-ethyl-1-{[(7-methoxy-3,4-dihydroisoquinolin-2(1H)-yl)sulfonyl]methyl}butyl)-N-hydroxyformamide]
25		171		47		CC(C)C(CS(=O)(=O)N1CCc2cc(Cl)c(Cl)cc2C1)N(O)C=O (stereo not drawn) [Example 39, N-(1-{[(6,7-dichloro-3,4-dihydroisoquinolin-2(1H)-yl)-sulfonyl]methyl}-2-methylpropyl)-N-hydroxyformamide]
2		1120		11		CCCOc1ccc2c(c1)CN(S(=O)(=O)CC(CC(C)(C)C)N(O)C=O)CC2 (stereo not drawn) [Example 40, N-(3,3-dimethyl-1-{[(7-propoxy-3,4-dihydroisoquinolin-2(1H)-yl)sulfonyl]methyl}butyl)-N-hydroxyformamide]
54		189		14		CC(C)(C)CC(CS(=O)(=O)N1CCc2ccc(Cl)cc2C1)N(O)C=O (stereo not drawn) [Example 41, N-(1-{[(7-chloro-3,4-dihydroisoquinolin-2(1H)-yl)sulfonyl]-methyl}-3,3-dimethylbutyl)-N-hydroxyformamide]
29		611		35		CC(C)(C)CC(CS(=O)(=O)N1CCc2cc(Cl)c(Cl)cc2C1)N(O)C=O (stereo not drawn) [Example 42, N-(1-{[(6,7-dichloro-3,4-dihydroisoquinolin-2(1H)-yl)-sulfonyl]methyl}-3,3-dimethylbutyl)-N-hydroxyformamide]
53		> 5000		68	1	CC(C)(C)CC(CS(=O)(=O)N1CCc2cc(C(F)(F)F)ccc2C1)N(O)C=O (stereo not drawn) [Example 43, N-[3,3-dimethyl-1-({[6-(trifluoromethyl)-3,4-dihydro-isoquinolin-2(1H)-yl]sulfonyl}methyl)butyl]-N-hydroxyformamide]
